Data as given in patent US9701659B2, “Insecticidally active amide derivatives with sulfur-substituted phenyl or pyridine groups” (Syngenta Participations AG, priority 2014, dated 2017).

Legend:
[1] = tested on: Spodoptera littoralis (Egyptian cotton leaf worm); test: Example B1: activity against Spodoptera littoralis, larvicide, feeding/residual contact, preventive (cotton leaf discs); assay type: in vivo; details: foliar, 72 h, L1 larvae, 3 days after treatment, read-out: activity (mortality, repellent effect, feeding behaviour, growth regulation)
From the text: Activity Against Spodoptera littoralis (Egyptian Cotton Leaf Worm)
(§1) (Larvicide, Feeding/Residual Contact Activity, Preventive)
Cotton leaf discs were placed on agar in a 24-well microtiter plate and sprayed with test solutions. After drying, the leaf discs were infested with 5 L1 larvae. The samples were checked for mortality, repellent effect, feeding behaviour, and growth regulation 3 days after treatment (DAT).

[2] = tested on: Diabrotica balteata (corn root worm); test: Example B4: activity against Diabrotica balteata, larvae L2 on maize sprouts, feeding/contact, preventative; assay type: in vivo; details: 120 h, 5 days incubation, read-out: activity (larval mortality, growth regulation)
Description: Activity Against Diabrotica Balteata (Corn Root Worm)
(Larvae L2 on Maize Sprouts, Feeding/Contact, Preventative)
Maize sprouts, placed on an agar layer in 24 well micro titer plates were treated with test solutions by spraying. After drying, the MTPs were infested with L2 larvae (6-10 per well). After an incubation period of 5 days, samples were checked for larval mortality and growth regulation.

[3] = tested on: Myzus persicae (green peach aphid); test: Example B5: activity against Myzus persicae, feeding/residual contact, preventive, mixed population (sunflower leaf discs); assay type: in vivo; details: foliar, 144 h, mixed ages, 6 DAT, read-out: activity (mortality, special effects)
Description: (§2) Activity Against Myzus persicae (Green Peach Aphid)
(Feeding/Residual Contact Activity, Preventive), Mixed Population
Sunflower leaf discs were placed on agar in a 24-well microtiter plate and sprayed with test solutions. After drying, the leaf discs were infested with an aphid population of mixed ages. After an incubation period of 6 DAT, samples were checked for mortality and special effects (e.g. phytotoxicity).

[4] = tested on: Myzus persicae (green peach aphid); test: Example B6: activity against Myzus persicae, feeding activity sachet test, mixed population; assay type: in vivo; details: 120 h, 5 days after infestation
From the text: as §2
(Feeding Activity Sachet Test), Mixed Population
Test compounds were applied by pipette into 24 well plates and mixed with Sucrose solution. The plates were closed with a stretched Parafilm. A plastic stencil with 24 holes is placed onto the plate and infested pea seedlings were placed directly on the Parafilm. The infested plate is closed with a gel blotting paper and another plastic stencil and then turned upside down. 5 days after infestation the samples were checked on mortality. Application rate: 12.5 ppm.

[5] = tested on: Aedes aegypti (yellow fever mosquito); test: Example B9: activity against Aedes aegypti, adult females on treated plates; assay type: in vivo; details: 200 ppm in ethanol; after 48 hours
Description: Activity Against Aedes aegypti (Yellow Fever Mosquito)
Test solutions, at an application rate of 200 ppm in ethanol, were applied to 12-well tissue culture plates. Once the deposits were dry, five, two to five days old adult female Aedes aegypti were added to each well, and sustained with a 10% sucrose solution in a cotton wool plug. Assessment of knockdown was made one hour after introduction, and mortality was assessed at 24 and 48 hours after introduction.

[6] = tested on: Plutella xylostella (diamond back moth); test: Example B3: activity against Plutella xylostella, larvicide, feeding/residual contact, preventive (artificial diet); assay type: in vivo; details: 120 h, L2 larvae, 5 days incubation, read-out: activity (larval mortality, antifeedant, growth regulation)
Description: Activity Against Plutella xylostella (Diamond Back Moth)
as §1
24-well microtiter plate (MTP) with artificial diet was treated with test solutions by pipetting. After drying, the MTPs were infested with L2 larvae (10-15 per well). After an incubation period of 5 days, samples were checked for larval mortality, antifeedant and growth regulation.

[7] = tested on: Myzus persicae (green peach aphid); test: Example B7: activity against Myzus persicae, systemic/feeding activity, curative, mixed population (pea seedlings); assay type: in vivo; details: 144 h, roots in test solution, 6 days after introduction, read-out: activity (mortality, special effects on the plant)
From the text: as §2
(Systemic/Feeding Activity, Curative), Mixed Population
Roots of pea seedlings, infested with an aphid population of mixed ages, were placed directly in the test solutions. 6 days after introduction, samples were checked for mortality and special effects on the plant.

## CCS(=O)(=O)c1cc(C(F)(F)F)ccc1C(=O)/N=c1\sc(C(F)(F)F)nn1C
other
  melting point: 195 to 197 °C

## CCS(=O)(=O)c1cc(C(F)(F)F)cnc1C(=O)/N=c1\sc(C(F)(F)C(F)(F)F)nn1C
other
  melting point: 123 to 125 °C

## CCS(=O)(=O)c1cc(C(F)(F)F)cnc1C(=O)/N=c1\cc(C(F)(F)F)ccn1C
other
  melting point: 153 to 155 °C

## CCS(=O)(=O)c1cc(C(F)(F)F)cnc1C(=O)/N=c1\ccc(SC(F)(F)F)cn1C
other
  melting point: 167 to 169 °C

## CCS(=O)(=O)c1cc(C(F)(F)F)cnc1C(=O)/N=c1\scc(C(F)(F)F)n1C
other
  melting point: 163 to 165 °C

## CCS(=O)(=O)c1cc(C(F)(F)F)cnc1C(=O)/N=c1\sc(C(F)(F)F)cn1C [P1, (N)-3-ethylsulfonyl-N-[3-methyl-5-(trifluoromethyl)thiazol-2-ylidene]-5-(trifluoromethyl)pyridine-2-carboxamide]
[1]
  mortality at 400 ppm: > 80%
[2]
  mortality at 400 ppm: > 80%

## CCSc1cccnc1C(=O)/N=c1\sc(C(F)(F)F)nn1C [P3, (N)-3-ethylsulfanyl-N-[3-methyl-5-(trifluoromethyl)-1,3,4-thiadiazol-2-ylidene]pyridine-2-carboxamide]
[2]
  mortality at 400 ppm: > 80%
[3]
  mortality at 400 ppm: > 80%
[4]
  mortality at 12.5 ppm: ≥ 80%
[5]
  control of Aedes aegypti: at least 80%

## CCSc1cc(C(F)(F)F)cnc1C(=O)/N=c1\sc(C(F)(F)F)nn1C [P4]
[1]
  mortality at 400 ppm: > 80%
[6]
  mortality at 400 ppm: > 80%
[2]
  mortality at 400 ppm: > 80%

## CCS(=O)(=O)c1cccnc1C(=O)/N=c1\sc(C(F)(F)F)nn1C [P5, (N)-3-ethylsulfonyl-N-[3-methyl-5-(trifluoromethyl)-1,3,4-thiadiazol-2-ylidene]pyridine-2-carboxamide]
[3]
  mortality at 400 ppm: > 80%
[7]
  mortality at 24 ppm: ≥ 80%

## CCS(=O)(=O)c1cc(C(F)(F)F)cnc1C(=O)/N=c1\sc(C(F)(F)F)nn1C [P6]
[1]
  mortality at 400 ppm: > 80%
[6]
  mortality at 400 ppm: > 80%
[2]
  mortality at 400 ppm: > 80%

## CCS(=O)(=O)c1cc(C(F)(F)F)cnc1C(=O)/N=c1\ccc(C(F)(F)F)nn1C [P9]
[3]
  mortality at 400 ppm: > 80%
